Results taken from patent US4550118A, “Heterocyclic compounds” (Ikeda Mohando Co., Ltd., priority 1982, dated 1985).

Columns and labels:
gastric mucus secretion = test: Effect on gastric mucus secretion in rats (alcian blue binding); assay type: in vivo, Wistar male rats; settings: 10 mg/kg × 2/day orally for 7 days, * significant at 5%, ** at 1%; for Alcian blue binding: 7 rats; for % Change (Alcian blue binding): vs control (0.5% CMC)
Protocol: The test compounds were administered orally to Wistar male rats weighing from 160 to 180 g so as to investigate the effect on gastric mucus secretion. The amount of mucus was determined using alcian blue color specifically bonding with acid mucosaccharides, and was expressed by the amount of color bonding with a unit weight (OD units/g tissue). The test compounds were administered at a dosage of 10 mg/kg twice a day for 7 days, and the rats were sacrificed one hour after the final administration in the morning on the 8th day by cervical dislocation. After laparatomy, the stomach was removed. After removal of the forestomach, an incision was made along the greater curvatura. The stomach was lightly washed with a 0.25M sucrose solution cooled with ice. The weight was determined after absorption of water with a filter paper.
Then, the stomach was exposed for 1.5 hrs in 10 ml of 0.25M sucrose solution containing 0.1% alcian blue 8 GX for staining. Then, the stained stomach was washed with 10 ml of a 0.25M sucrose for 15 min, being dipped in 15 ml of a 0.5M MgCl2 for 2 hrs so as to elute alcian blue combined with the mucus. Finally, 10 ml of ethyl ether was added, and the mixture was shaken vigorously. The floating substances were removed, and the aqueous layer was quantified by measuring the absorption at 605 nm.
The above procedures were carried out at room temperature.

[1] = Acute oral toxicity test in mice (LD50, Litchfield-Wilcoxon); settings: mouse, in vivo
Protocol: Male dd-mice were divided into groups of 5 and fasted for 8 hours. The test compounds were administered orally to the mice weighing from 19.7 g. to 22.0 g. The mice were observed survival or death as well as the general symptoms over 7 days after the administration of the compounds. The value of LD50 for each compound was estimated from the mortality observed on the basis of the Litchfield-Wilcoxon method.
In a similar test, the test compound of example 27, 35, 66, 84, 97, 104, 118, 125 or 129 was administered orally to the mice at a dose of 1500 mg/kg.

[2] = target: T1, histamine H2 receptor in atria (Cavia porcellus, UniProt P47747); test: Histamine H2 receptor inhibition effect by isolated guinea pig right atrium preparation (negative chronotropic effect); assay type: cell-based, Male Hartley Guinea Pig; settings: 5×10^-6 mol sample 3 minutes prior to histamine, mean of five, read-out: inhibitory effect of histamine H2 receptor in atria (pA2 value) (converted)
T1 construct: right atrium was isolated; from tissue; host or cells: isolated right atrium of male Hartley guinea pig
Protocol: (B) Measurement of Histamine H2 Receptor Inhibition Effect by Isolated Guinea Pig Right Atrium Preparation
Male Hartley Guinea Pig weighing around 400 g was sacrified by decapitation, and right atrium was isolated. The right atrium was suspended in an organ bath (50 ml) containing modified Ringer solution. Under application of a tensile load of 1 g, the heart rate was recorded by means of a polygraph. Histamine was applied cumulatively from 1×10^-7 mol to 3×10^-4 mol and a cumulative dosage response curve was drawn. Then, 5×10^-6 mol of the sample was administered 3 minutes prios to histamine application. The negative logarithmic value (pA2) of the specimen molarity required for shifting the curve to the right to double concentration was calculated.

[3] = tested on: acid secretion in pylorus-ligated rats; test: Anti-secretory effect (histamine-stimulated gastric acid secretion) in pylorus-ligated rat; assay type: in vivo, male wistar rats; settings: Rattus norvegicus, sc, 3 h; 2 mg/kg s.c., 30 min before histamine 3 mg/kg s.c.; n=5; * significant at 5%, ** at 1% vs control; read-out: inhibitory effect of acid secretion (%) at 2 mg/kg s.c.
Protocol: (A) Anti-secretory Effect in Pylorus-ligated Rat
After 24 hr fasting, male wistar rats weighing about 160 g were anesthetized by intraperitoreal injection of urethans 1.2 g/kg. Then, after ligating the pylorus and the esophagus, the proventriculus was incised and a double polyethylene cannula was inserted. The gastric wall was washed out with 5 ml of physiological saline every 30 minutes and the amount of acid contained in the saline after washing was measured by titration. After measuring the basal acid secretion of the pylorus ligated rats three times, the compounds of the invention, 2 mg/kg, were administered subcutaneously and, 30 minutes thereafter, histamine 3 mg/kg, was administered also subcutaneously. Then, the amounts of acid secretion were measured for 3 hours. […] Then, an inhibition rate was calculated in accordance with the following formula, in relation to the increment values measured for the control group. [formula]
One group included five examples.

T1 sequence (P47747 whole entry): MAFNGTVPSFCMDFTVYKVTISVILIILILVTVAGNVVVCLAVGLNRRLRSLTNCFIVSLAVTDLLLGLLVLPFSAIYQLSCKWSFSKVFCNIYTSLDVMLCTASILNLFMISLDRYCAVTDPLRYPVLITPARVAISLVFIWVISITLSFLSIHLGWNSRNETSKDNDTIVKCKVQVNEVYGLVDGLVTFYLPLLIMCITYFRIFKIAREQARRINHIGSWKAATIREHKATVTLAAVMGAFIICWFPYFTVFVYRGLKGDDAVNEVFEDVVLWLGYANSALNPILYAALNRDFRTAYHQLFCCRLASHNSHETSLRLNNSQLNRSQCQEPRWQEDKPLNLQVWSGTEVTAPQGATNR

| Structure (SMILES) | Alcian blue binding (gastric mucus secretion) [OD units/g tissue] | % Change (Alcian blue binding) (gastric mucus secretion) | LD50 at 168 h ([1]; oral, groups of 5, 7 days observation) [mg/kg] | Kb [2] [nM] | inhibition in vivo at 2 mg/kg [3] [%] | LD50 at 168 h ([1]; similar test, oral dose of 1500 mg/kg) [mg/kg] |
| --- | --- | --- | --- | --- | --- | --- |
| CNC(=NC#N)NCCCOc1ccc2[nH]c(NC(=N)N)nc2c1 [Example 8, N-cyano-N'-methyl-N"-[3-<5-(2-guanidinobenzimidazolyl)oxypropyl] guanidine] | 0.55 ± 0.04 | +52.5% |  |  |  |  |
| CN(C)Cc1nc2cc(CSCCNc3n[s+]([O-])nc3N)ccc2[nH]1 (stereo not shown) [Example 103, 3-[2-<5-(2-dimethylaminomethylbenzimidazolyl)methylthio>ethyl]amino-4-amino-1,2,5-thiadiazol-1-oxide] | 0.31 ± 0.02 | +14.8% | > 4000 | 575 | 98 |  |
| CN(C)Cc1cccc(Cc2cnc(NCCSCc3ccc4[nH]c(CN(C)C)nc4c3)[nH]c2=O)c1 [Example 78, 2-[2-<5-(2-dimethylaminomethylbenzimidazolyl)methylthio>ethylamino]-5-(3-dimethylaminomethylbenzyl)-4-pyrimidone] | 0.45 ± 0.04 | +24.6% |  | 1780 | 107 |  |
| CN(C)Cc1nc2cc(CSCCNc3nc(N)nn3C)ccc2[nH]1 [Example 97, 1-methyl-5-[2-<5-(2-dimethylaminomethylbenzimidazolyl)-methylthio>ethyl]-1H-1,2,4-triazole-3,5-diamine] | 0.49 ± 0.02 | +37.4% |  | 891 | 76 | > 1500 |
